According to patent US20230165872A1, “COMBINATION OF BCMA-DIRECTED T CELL THERAPY AND AN IMMUNOMODULATORY COMPOUND” (Juno Therapeutics, Inc., priority 2020, published 2023):

Columns and labels:
Format in all cases: cell-based, human
[1] = tested on: OPM2 target cells; assay: Acute co-culture cytokine secretion of anti-BCMA CAR T cells with OPM2; settings: OPM2, E:T 1:1, 24 hours, 0.01-10,000 nM, FIG. 2B
Protocol: Anti-tumor effects of anti-BCMA CAR T cells, alone and in combination with cell immunomodulatory compounds Compound A (iberdomide, (S)-3-[4-(4-morpholin-4-ylmethyl-benzyloxy)-1-oxo-1,3-dihydro-isoindol-2-yl]-piperidine-2,6-dione) or Compound B ((S)-4-(4-(4-(((2-(2,6-dioxopiperidin-3-yl)-1-oxoisoindolin-4-yl)oxy)methyl)benzyl)piperazin-1-yl)-3-fluorobenzonitrile), were assessed in two different BCMA-expressing target multiple myeloma cell lines RPMI-8226 or OPM-2. Anti-BCMA CAR+ T cells were generated as described in Example 1.
The anti-BCMA CAR-expressing T cells were incubated with target cells, RPMI 8226 (BCMA^med human multiple myeloma cell line) or OPM2 cells (BCMA^med human multiple myeloma cell line) target cells, at an E:T ratio of 1:1. The co-culture incubation with target cells was carried out in the presence of Compound A (0.01 nM, 0.1 nM, 1 nM, 10 nM, 100 nM, 1000 nM, or 10,000 nM) or Compound B (0.01 nM, 0.1 nM, 1 nM, 10 nM, 100 nM, 1000 nM, or 10,000 nM).
Cytokine secretion of IL-2, TNFα and IFN-gamma cytokines from cell culture supernatant of the co-cultures after 24 hours of incubation with targets cells was determined. Co-culture of anti-BCMA CAR+ T cells with Compound A enhanced the CAR T cytokine production both against RPMI-8226 target cells (FIG. 2A) and OPM2 target cells (FIG. 2B).

[2] = tested on: anti-BCMA CAR T cells; assay: Viability and count of anti-BCMA CAR T cells after 7-day chronic stimulation with BCMA-conjugated beads
Protocol: Cryofrozen anti-BCMA CAR T cells, produced substantially as described in Example 1 and formulated at a 1:1 ratio of CD4+ and CD8^+ T cells, were thawed. To subject cells to chronic stimulation conditions, the anti-BCMA CAR+ T cells were stimulated with 50 μg BCMA conjugated beads (diameter about 4.5 μm from a 50 μg/ml BCMA-conjugated bead composition, generated as described in Example 2) at a ratio of T cells to beads of 1:1 in the presence or absence of Compound A (iberdomide, (S)-3-[4-(4-morpholin-4-ylmethyl-benzyloxy)-1-oxo-1,3-dihydro-isoindol-2-yl]-piperidine-2,6-dione) (1 nM or 10 nM), Compound B ((S)-4-(4-(4-(((2-(2,6-dioxopiperidin-3-yl)-1-oxoisoindolin-4-yl)oxy)methyl)benzyl)piperazin-1-yl)-3-fluorobenzonitrile) (0.1 nM or 1 nM), or DMSO vehicle control. The cells were then incubated at 37° C., 5% CO2 for 7 days.
At day 7, anti-BCMA CAR cells of all the samples were counted using a cellometer machine and stained for flow cytometric analysis. Cells were stained with a viability dye and analyzed by flow cytometry. Viability and count of anti-BCMA CAR T cells was increased in the presence of Compound A or Compound B.
Cryofrozen anti-BCMA CAR T cells, produced substantially as described in Example 1 and formulated at a 1:1 ratio of CD4+ and CD8+ T cells, were thawed. […] The cells were then incubated at 37° C., 5% CO2 for 7 days.
At day 7, anti-BCMA CAR cells of all the samples were counted using a cellometer machine and stained for flow cytometric analysis. Cells were stained with a viability dye and analyzed by flow cytometry.

[3] = tested on: Irradiated DF-15R target cells; assay: Serial stimulation assay of anti-BCMA CAR T cells
Protocol: A serial stimulation assay or serial re-challenge assay was used to assess activity of anti-BCMA CAR T cells following repeated rounds of antigen stimulation, in the presence and absence of Compound A (iberdomide, (S)-3-[4-(4-morpholin-4-ylmethyl-benzyloxy)-1-oxo-1,3-dihydro-isoindol-2-yl]-piperidine-2,6-dione).
Anti-BCMA CAR+ T cells (generated as described in Example 1) were plated in triplicate at 1×10^5 cells/well on 96-well plates. Irradiated DF-15R target cells, which is a multiple myeloma (MM) cell line generated to be resistant to effect of cell immunomodulatory compounds (Lopez-Girona et al. Leukemia, 2012; 26:2326-2335), were added at an effector-to-target (E:T) ratio of 1:2 in the presence or absence of various concentrations (10 nM) of Iberdomide.
Every 3-4 days (start of each new round), CAR T cells were counted. Cells then were harvested and re-plated at the initial seeding density with fresh media, newly-added Iberdomide at the same concentration, where applicable, and newly-thawed, irradiated target cells. Five rounds of stimulation were carried out during a 19 day culture period. At day 5 and day 9 (24 hours after a re-plating (reset) cytokine production in the supernatant was assessed. Results were assessed in two different donors.

[4] = Example 3: day 7, Compound A 1 or 10 nM, Compound B 0.1 or 1 nM
[5] = Example 7: day 7, lenalidomide 1000 nM, Compound A 0.1, 1 or 10 nM, FIG. 8
[6] = 24 hours after first reset (day 5) or second reset (day 9), FIG. 5B

Compound: O=C1CC[C@H](N2Cc3c(OCc4ccc(CN5CCOCC5)cc4)cccc3C2=O)C(=O)N1 [Compound A, (S)-3-[4-(4-morpholin-4-ylmethyl-benzyloxy)-1-oxo-1,3-dihydro-isoindol-2-yl]-piperidine-2,6-dione]
- CAR T cytokine production (IL-2, TNFα, IFN-gamma in supernatant) [1]: enhanced
- count of anti-BCMA CAR T cells [2, 4]: increased
- viability of anti-BCMA CAR T cells [2, 4]: increased
- count of anti-BCMA CAR T cells [2, 5]: increased
- viability of anti-BCMA CAR T cells [2, 5]: increased
- anti-BCMA CAR cell counts (number of population doublings) ([3]; 10 nM, E:T 1:2, five rounds over 19 days, two donors, FIG. 5A): enhanced
- IL-2 production [3, 6]: increased
- TNF-alpha production [3, 6]: increased
